In the kinase profiling compilation of Christmann-Franck et al. (2016):

Legend:
Assay in all cases: radiometric filter-binding kinase assay, Kinase HotSpot
Details in all cases: compound 0.5 µM; ATP 10 µM
TGFBR2 (human) = TGFBR2 (human) (UniProt P37173)
WEE1 (human) = WEE1 (human) (UniProt P30291)
GRK7 (human) = GRK7 (human) (UniProt Q8WTQ7)
GRK5 (human) = GRK5 (human) (UniProt P34947)
FLT1 (human) = FLT1 (human) (UniProt P17948)
MAPK1 (human) = MAPK1 (human) (UniProt P28482)
EPHB4 (human) = EPHB4 (human) (UniProt P54760)
ERBB4 (human) = ERBB4 (human) (UniProt Q15303)
PLK3 (human) = PLK3 (human) (UniProt Q9H4B4)
PRKACA (human) = PRKACA (human) (UniProt P17612)
SRC (human) = SRC (human) (UniProt P12931)
MAPK13 (human) = MAPK13 (human) (UniProt O15264)
CAMK2B (human) = CAMK2B (human) (UniProt Q13554)
AXL (human) = AXL (human) (UniProt P30530)
CSNK1A1 (human) = CSNK1A1 (human) (UniProt P48729)
PAK1 (human) = PAK1 (human) (UniProt Q13153)
FLT3 (human) = FLT3 (human) (UniProt P36888)
CDK1 CCNB1 (human) = CDK1 CCNB1 (human) (UniProt P06493+P14635)
WNK3 (human) = WNK3 (human) (UniProt Q9BYP7)
MAP4K5 (human) = MAP4K5 (human) (UniProt Q9Y4K4)
FRK (human) = FRK (human) (UniProt P42685)
RPS6KA1 KD1 KD2 (human) = RPS6KA1 KD1 KD2 (human) (UniProt Q15418)
KIT (human) = KIT (human) (UniProt P10721)
RAF1 (human) = RAF1 (human) (UniProt P04049)
MAPK11 (human) = MAPK11 (human) (UniProt Q15759)
PDGFRA (human) = PDGFRA (human) (UniProt P16234)
TBK1 (human) = TBK1 (human) (UniProt Q9UHD2)
ALK (human) = ALK (human) (UniProt Q9UM73)
CHEK1 (human) = CHEK1 (human) (UniProt O14757)
GRK4 (human) = GRK4 (human) (UniProt P32298)
CSNK2A1 (human) = CSNK2A1 (human) (UniProt P68400)
CDK9 CCNT1 (human) = CDK9 CCNT1 (human) (UniProt P50750+O60563)
CDK6 CCND3 (human) = CDK6 CCND3 (human) (UniProt P30281+Q00534)
MAPKAPK3 (human) = MAPKAPK3 (human) (UniProt Q16644)
PRKD2 (human) = PRKD2 (human) (UniProt Q9BZL6)
PRKD1 (human) = PRKD1 (human) (UniProt Q15139)
FYN (human) = FYN (human) (UniProt P06241)
STK10 (human) = STK10 (human) (UniProt O94804)
RPS6KA2 KD1 KD2 (human) = RPS6KA2 KD1 KD2 (human) (UniProt Q15349)
CDK5 CDK5R1 p25 (human) = CDK5 CDK5R1 p25 (human) (UniProt Q00535+Q15078)
RET (human) = RET (human) (UniProt P07949)

Chain of PRKD1 (human) (Q15139 whole entry, looked up): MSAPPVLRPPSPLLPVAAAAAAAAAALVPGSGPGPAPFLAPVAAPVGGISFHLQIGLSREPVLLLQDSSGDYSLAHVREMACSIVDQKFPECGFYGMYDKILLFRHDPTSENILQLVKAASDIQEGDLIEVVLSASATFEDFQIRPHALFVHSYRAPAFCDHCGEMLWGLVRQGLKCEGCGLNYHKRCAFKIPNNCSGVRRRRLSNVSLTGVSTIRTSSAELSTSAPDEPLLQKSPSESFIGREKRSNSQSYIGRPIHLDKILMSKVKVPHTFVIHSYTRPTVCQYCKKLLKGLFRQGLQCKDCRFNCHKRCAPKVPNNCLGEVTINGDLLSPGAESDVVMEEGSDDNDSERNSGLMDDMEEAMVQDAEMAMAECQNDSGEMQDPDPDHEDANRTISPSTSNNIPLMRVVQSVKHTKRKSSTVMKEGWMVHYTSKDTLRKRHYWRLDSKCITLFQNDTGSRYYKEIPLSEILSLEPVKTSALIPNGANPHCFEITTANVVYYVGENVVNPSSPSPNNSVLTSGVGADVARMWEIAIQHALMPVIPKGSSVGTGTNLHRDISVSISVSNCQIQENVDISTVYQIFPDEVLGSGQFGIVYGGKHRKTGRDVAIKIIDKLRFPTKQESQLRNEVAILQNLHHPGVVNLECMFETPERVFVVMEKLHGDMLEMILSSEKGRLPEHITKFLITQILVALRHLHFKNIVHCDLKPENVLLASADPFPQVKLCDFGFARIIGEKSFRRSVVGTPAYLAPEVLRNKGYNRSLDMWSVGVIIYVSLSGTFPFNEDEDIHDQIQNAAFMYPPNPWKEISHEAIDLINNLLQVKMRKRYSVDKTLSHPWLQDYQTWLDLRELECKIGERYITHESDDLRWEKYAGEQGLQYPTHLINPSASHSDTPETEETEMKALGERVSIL
Chain of RPS6KA1 KD1 KD2 (human) (Q15418 whole entry, looked up): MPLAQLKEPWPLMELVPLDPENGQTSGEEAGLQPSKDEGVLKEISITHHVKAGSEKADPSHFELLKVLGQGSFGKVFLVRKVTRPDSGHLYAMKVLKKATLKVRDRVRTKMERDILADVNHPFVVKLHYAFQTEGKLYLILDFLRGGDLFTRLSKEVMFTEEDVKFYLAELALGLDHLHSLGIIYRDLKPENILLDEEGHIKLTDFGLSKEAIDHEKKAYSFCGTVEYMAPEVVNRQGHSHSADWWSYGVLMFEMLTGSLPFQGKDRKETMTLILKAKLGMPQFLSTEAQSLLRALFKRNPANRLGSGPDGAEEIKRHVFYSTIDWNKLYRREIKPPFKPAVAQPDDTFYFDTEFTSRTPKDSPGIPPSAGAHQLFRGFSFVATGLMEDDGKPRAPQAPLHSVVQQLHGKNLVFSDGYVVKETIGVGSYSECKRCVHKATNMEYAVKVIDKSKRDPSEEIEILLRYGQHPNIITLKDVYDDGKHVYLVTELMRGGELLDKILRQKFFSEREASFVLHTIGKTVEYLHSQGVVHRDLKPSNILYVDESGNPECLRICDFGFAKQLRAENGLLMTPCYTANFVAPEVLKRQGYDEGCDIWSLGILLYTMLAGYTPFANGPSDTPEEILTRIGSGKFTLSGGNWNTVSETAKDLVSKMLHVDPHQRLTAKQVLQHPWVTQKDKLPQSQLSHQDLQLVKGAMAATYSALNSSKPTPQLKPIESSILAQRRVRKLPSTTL
Chain of RAF1 (human) (P04049 whole entry, looked up): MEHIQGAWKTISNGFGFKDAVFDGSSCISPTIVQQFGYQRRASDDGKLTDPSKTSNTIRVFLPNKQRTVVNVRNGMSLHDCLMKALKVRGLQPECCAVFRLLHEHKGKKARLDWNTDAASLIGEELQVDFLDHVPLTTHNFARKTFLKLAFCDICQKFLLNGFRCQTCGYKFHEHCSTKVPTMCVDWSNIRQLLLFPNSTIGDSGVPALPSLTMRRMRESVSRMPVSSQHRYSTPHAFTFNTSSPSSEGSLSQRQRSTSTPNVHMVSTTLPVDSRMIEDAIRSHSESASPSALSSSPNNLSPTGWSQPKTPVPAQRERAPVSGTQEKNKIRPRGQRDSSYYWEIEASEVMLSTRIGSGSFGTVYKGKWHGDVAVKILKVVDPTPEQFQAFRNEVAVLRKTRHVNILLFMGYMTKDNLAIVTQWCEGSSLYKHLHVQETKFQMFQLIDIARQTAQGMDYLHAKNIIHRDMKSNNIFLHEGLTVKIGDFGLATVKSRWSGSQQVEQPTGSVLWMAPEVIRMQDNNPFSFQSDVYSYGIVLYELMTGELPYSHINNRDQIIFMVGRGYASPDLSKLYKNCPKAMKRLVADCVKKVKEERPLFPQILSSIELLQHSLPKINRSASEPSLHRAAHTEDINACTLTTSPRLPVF
Chain of GRK5 (human) (P34947 whole entry, looked up): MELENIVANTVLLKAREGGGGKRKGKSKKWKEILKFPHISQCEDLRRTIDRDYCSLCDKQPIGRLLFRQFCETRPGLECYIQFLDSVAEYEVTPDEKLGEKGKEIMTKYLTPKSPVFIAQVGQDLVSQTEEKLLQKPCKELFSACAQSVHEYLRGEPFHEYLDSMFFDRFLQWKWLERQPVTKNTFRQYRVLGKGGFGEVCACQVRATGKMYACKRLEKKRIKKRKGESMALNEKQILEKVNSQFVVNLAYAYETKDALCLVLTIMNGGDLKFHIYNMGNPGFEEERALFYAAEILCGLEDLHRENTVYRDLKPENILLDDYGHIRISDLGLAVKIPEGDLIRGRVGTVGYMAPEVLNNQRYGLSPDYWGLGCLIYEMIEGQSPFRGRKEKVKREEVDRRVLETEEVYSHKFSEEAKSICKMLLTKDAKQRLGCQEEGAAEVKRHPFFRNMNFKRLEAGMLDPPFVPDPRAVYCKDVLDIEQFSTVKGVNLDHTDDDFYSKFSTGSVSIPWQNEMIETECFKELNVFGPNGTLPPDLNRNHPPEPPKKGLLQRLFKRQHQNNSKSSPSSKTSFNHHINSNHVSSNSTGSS
Chain of WEE1 (human) (P30291 whole entry, looked up): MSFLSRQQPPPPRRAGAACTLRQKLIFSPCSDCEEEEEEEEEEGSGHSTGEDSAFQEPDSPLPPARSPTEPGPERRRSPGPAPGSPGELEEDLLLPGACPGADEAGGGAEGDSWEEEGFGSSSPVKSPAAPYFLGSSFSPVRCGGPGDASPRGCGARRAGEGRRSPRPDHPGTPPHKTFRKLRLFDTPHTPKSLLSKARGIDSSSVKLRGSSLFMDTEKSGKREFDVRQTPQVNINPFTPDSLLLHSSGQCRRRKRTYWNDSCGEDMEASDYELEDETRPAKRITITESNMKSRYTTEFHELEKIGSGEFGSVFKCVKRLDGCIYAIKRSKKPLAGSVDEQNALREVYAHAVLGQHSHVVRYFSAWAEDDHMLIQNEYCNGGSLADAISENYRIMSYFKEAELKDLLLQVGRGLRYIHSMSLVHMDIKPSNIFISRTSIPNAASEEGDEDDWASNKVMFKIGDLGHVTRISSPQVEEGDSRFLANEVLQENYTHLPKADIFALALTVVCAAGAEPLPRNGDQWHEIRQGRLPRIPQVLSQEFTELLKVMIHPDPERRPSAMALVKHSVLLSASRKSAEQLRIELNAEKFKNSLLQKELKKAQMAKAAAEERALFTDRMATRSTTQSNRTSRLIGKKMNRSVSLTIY
Chain of CDK1 CCNB1 (human) (P06493 whole entry, looked up): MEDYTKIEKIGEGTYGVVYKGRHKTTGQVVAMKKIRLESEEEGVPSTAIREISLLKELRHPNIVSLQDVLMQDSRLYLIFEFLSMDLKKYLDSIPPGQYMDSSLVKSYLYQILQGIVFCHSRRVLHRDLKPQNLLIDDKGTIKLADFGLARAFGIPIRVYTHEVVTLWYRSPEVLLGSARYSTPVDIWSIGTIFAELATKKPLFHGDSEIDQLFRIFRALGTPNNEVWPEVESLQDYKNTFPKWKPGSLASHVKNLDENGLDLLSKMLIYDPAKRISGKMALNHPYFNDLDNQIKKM
Chain of CDK1 CCNB1 (human) (P14635 whole entry, looked up): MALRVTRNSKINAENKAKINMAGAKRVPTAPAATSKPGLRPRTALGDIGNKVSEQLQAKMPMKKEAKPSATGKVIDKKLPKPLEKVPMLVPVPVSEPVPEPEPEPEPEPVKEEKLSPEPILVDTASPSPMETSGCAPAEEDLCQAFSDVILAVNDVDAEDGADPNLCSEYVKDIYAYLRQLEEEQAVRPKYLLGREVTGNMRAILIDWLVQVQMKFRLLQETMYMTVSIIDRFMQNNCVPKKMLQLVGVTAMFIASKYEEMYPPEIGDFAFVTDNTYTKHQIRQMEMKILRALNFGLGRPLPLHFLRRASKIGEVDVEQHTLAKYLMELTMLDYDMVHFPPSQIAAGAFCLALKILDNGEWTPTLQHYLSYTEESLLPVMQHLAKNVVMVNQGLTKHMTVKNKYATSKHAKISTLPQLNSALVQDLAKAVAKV
Chain of PLK3 (human) (Q9H4B4 whole entry, looked up): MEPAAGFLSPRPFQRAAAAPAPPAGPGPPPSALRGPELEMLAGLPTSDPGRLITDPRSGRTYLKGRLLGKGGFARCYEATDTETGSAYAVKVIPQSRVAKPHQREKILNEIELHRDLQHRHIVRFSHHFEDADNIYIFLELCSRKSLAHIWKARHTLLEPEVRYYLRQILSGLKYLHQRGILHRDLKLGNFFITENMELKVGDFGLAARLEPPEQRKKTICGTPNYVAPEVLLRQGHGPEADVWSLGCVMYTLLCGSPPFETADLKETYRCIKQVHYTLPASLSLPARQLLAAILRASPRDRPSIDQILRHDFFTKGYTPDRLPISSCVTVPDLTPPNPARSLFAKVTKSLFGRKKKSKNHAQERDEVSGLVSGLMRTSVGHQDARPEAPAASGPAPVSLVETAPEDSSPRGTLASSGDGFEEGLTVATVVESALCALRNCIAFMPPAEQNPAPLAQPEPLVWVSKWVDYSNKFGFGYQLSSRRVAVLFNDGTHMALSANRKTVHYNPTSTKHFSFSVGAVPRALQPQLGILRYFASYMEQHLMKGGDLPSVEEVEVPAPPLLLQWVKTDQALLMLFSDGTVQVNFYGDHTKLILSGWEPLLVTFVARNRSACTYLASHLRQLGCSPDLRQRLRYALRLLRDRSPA

Cc1ccc(NC2=CC(=O)c3sc(C)nc3C2=O)cc1
residual activity (TGFBR2 (human)): 77.6% | residual activity (WEE1 (human)): 107% | residual activity (GRK7 (human)): 101% | residual activity (GRK5 (human)): 106% | residual activity (FLT1 (human)): 89.8% | residual activity (MAPK1 (human)): 91.4% | residual activity (EPHB4 (human)): 89.7% | residual activity (ERBB4 (human)): 98.5% | residual activity (PLK3 (human)): 94.5% | residual activity (PRKACA (human)): 95.9% | residual activity (SRC (human)): 79.6% | residual activity (MAPK13 (human)): 105% | residual activity (CAMK2B (human)): 109% | residual activity (AXL (human)): 97% | residual activity (CSNK1A1 (human)): 106% | residual activity (PAK1 (human)): 87.5% | residual activity (FLT3 (human)): 72.5% | residual activity (CDK1 CCNB1 (human)): 69.7% | residual activity (WNK3 (human)): 102% | residual activity (MAP4K5 (human)): 96.9% | residual activity (FRK (human)): 87.9% | residual activity (RPS6KA1 KD1 KD2 (human)): 102% | residual activity (KIT (human)): 74.7% | residual activity (RAF1 (human)): 90.5% | residual activity (MAPK11 (human)): 102% | residual activity (PDGFRA (human)): 85.9% | residual activity (TBK1 (human)): 94% | residual activity (ALK (human)): 105% | residual activity (CHEK1 (human)): 91.1% | residual activity (GRK4 (human)): 93.1% | residual activity (CSNK2A1 (human)): 98.2% | residual activity (CDK9 CCNT1 (human)): 97.6% | residual activity (CDK6 CCND3 (human)): 99.6% | residual activity (MAPKAPK3 (human)): 76.5% | residual activity (PRKD2 (human)): 87.7% | residual activity (PRKD1 (human)): 102% | residual activity (FYN (human)): 95.6% | residual activity (STK10 (human)): 95% | residual activity (RPS6KA2 KD1 KD2 (human)): 82.5% | residual activity (CDK5 CDK5R1 p25 (human)): 61.9% | residual activity (RET (human)): 97.6%

Nc1ncnc2[nH]nc(Nc3ccc(F)cc3)c12
residual activity (TGFBR2 (human)): 101% | residual activity (WEE1 (human)): 93.9% | residual activity (GRK7 (human)): 105% | residual activity (GRK5 (human)): 97.1% | residual activity (FLT1 (human)): 87.3% | residual activity (MAPK1 (human)): 80.8% | residual activity (EPHB4 (human)): 87.8% | residual activity (ERBB4 (human)): 121% | residual activity (PLK3 (human)): 98% | residual activity (PRKACA (human)): 96.8% | residual activity (SRC (human)): 89.6% | residual activity (MAPK13 (human)): 104% | residual activity (CAMK2B (human)): 97.7% | residual activity (AXL (human)): 45.4% | residual activity (CSNK1A1 (human)): 90.3% | residual activity (PAK1 (human)): 95.2% | residual activity (FLT3 (human)): 78.3% | residual activity (CDK1 CCNB1 (human)): 90.7% | residual activity (WNK3 (human)): 103% | residual activity (MAP4K5 (human)): 52% | residual activity (FRK (human)): 90% | residual activity (RPS6KA1 KD1 KD2 (human)): 82.2% | residual activity (KIT (human)): 93.5% | residual activity (RAF1 (human)): 96.7% | residual activity (MAPK11 (human)): 108% | residual activity (PDGFRA (human)): 101% | residual activity (TBK1 (human)): 99.6% | residual activity (ALK (human)): 88.9% | residual activity (CHEK1 (human)): 88% | residual activity (GRK4 (human)): 98.8% | residual activity (CSNK2A1 (human)): 89.9% | residual activity (CDK9 CCNT1 (human)): 99.1% | residual activity (CDK6 CCND3 (human)): 99.6% | residual activity (MAPKAPK3 (human)): 94% | residual activity (PRKD2 (human)): 81.3% | residual activity (PRKD1 (human)): 98.9% | residual activity (FYN (human)): 93% | residual activity (STK10 (human)): 70.5% | residual activity (RPS6KA2 KD1 KD2 (human)): 70.6% | residual activity (CDK5 CDK5R1 p25 (human)): 82.5% | residual activity (RET (human)): 78.1%

c1ccc(-c2n[nH]c3c2oc2ccccc23)cc1
residual activity (TGFBR2 (human)): 94.1% | residual activity (WEE1 (human)): 92.6% | residual activity (GRK7 (human)): 102% | residual activity (GRK5 (human)): 123% | residual activity (FLT1 (human)): 94.5% | residual activity (MAPK1 (human)): 118% | residual activity (EPHB4 (human)): 112% | residual activity (ERBB4 (human)): 89.7% | residual activity (PLK3 (human)): 99.2% | residual activity (PRKACA (human)): 97.5% | residual activity (SRC (human)): 81.3% | residual activity (MAPK13 (human)): 109% | residual activity (CAMK2B (human)): 101% | residual activity (AXL (human)): 101% | residual activity (CSNK1A1 (human)): 73.8% | residual activity (PAK1 (human)): 94.9% | residual activity (FLT3 (human)): 12.1% | residual activity (CDK1 CCNB1 (human)): 87.7% | residual activity (WNK3 (human)): 91.5% | residual activity (MAP4K5 (human)): 36.6% | residual activity (FRK (human)): 89.9% | residual activity (RPS6KA1 KD1 KD2 (human)): 100% | residual activity (KIT (human)): 38% | residual activity (RAF1 (human)): 94.9% | residual activity (MAPK11 (human)): 95.7% | residual activity (PDGFRA (human)): 73.7% | residual activity (TBK1 (human)): 105% | residual activity (ALK (human)): 95.9% | residual activity (CHEK1 (human)): 117% | residual activity (GRK4 (human)): 110% | residual activity (CSNK2A1 (human)): 87.2% | residual activity (CDK9 CCNT1 (human)): 83.9% | residual activity (CDK6 CCND3 (human)): 91.6% | residual activity (MAPKAPK3 (human)): 100% | residual activity (PRKD2 (human)): 86.9% | residual activity (PRKD1 (human)): 79.2% | residual activity (FYN (human)): 104% | residual activity (STK10 (human)): 108% | residual activity (RPS6KA2 KD1 KD2 (human)): 77.5% | residual activity (CDK5 CDK5R1 p25 (human)): 99% | residual activity (RET (human)): 78.2%

CCN(CC)C(=O)c1ccc(Nc2nc(OCC3CCCCC3)c3nc[nH]c3n2)cc1
residual activity (TGFBR2 (human)): 75.4% | residual activity (WEE1 (human)): 110% | residual activity (GRK7 (human)): 103% | residual activity (GRK5 (human)): 98.8% | residual activity (FLT1 (human)): 84% | residual activity (MAPK1 (human)): 106% | residual activity (EPHB4 (human)): 85% | residual activity (ERBB4 (human)): 91% | residual activity (PLK3 (human)): 98.1% | residual activity (PRKACA (human)): 93.7% | residual activity (SRC (human)): 72.8% | residual activity (MAPK13 (human)): 95.3% | residual activity (CAMK2B (human)): 97.6% | residual activity (AXL (human)): 80.8% | residual activity (CSNK1A1 (human)): 104% | residual activity (PAK1 (human)): 93.8% | residual activity (FLT3 (human)): 10.3% | residual activity (CDK1 CCNB1 (human)): 62.4% | residual activity (WNK3 (human)): 80.6% | residual activity (MAP4K5 (human)): 78% | residual activity (FRK (human)): 116% | residual activity (RPS6KA1 KD1 KD2 (human)): 57.1% | residual activity (KIT (human)): 40.7% | residual activity (RAF1 (human)): 86.3% | residual activity (MAPK11 (human)): 85.5% | residual activity (PDGFRA (human)): 66.6% | residual activity (TBK1 (human)): 25.4% | residual activity (ALK (human)): 74.9% | residual activity (CHEK1 (human)): 66.1% | residual activity (GRK4 (human)): 93% | residual activity (CSNK2A1 (human)): 87.4% | residual activity (CDK9 CCNT1 (human)): 88.8% | residual activity (CDK6 CCND3 (human)): 47.2% | residual activity (MAPKAPK3 (human)): 103% | residual activity (PRKD2 (human)): 67% | residual activity (PRKD1 (human)): 62.6% | residual activity (FYN (human)): 62.6% | residual activity (STK10 (human)): 57.3% | residual activity (RPS6KA2 KD1 KD2 (human)): 30.9% | residual activity (CDK5 CDK5R1 p25 (human)): 77.2% | residual activity (RET (human)): 7.65%

O=C(Nc1cccc(Nc2nccc(Nc3cccc(C(F)(F)F)c3)n2)c1)C1CC1
residual activity (TGFBR2 (human)): 91.6% | residual activity (WEE1 (human)): 95.6% | residual activity (GRK7 (human)): 101% | residual activity (GRK5 (human)): 104% | residual activity (FLT1 (human)): 97% | residual activity (MAPK1 (human)): 89% | residual activity (EPHB4 (human)): 91.3% | residual activity (ERBB4 (human)): 103% | residual activity (PLK3 (human)): 90.2% | residual activity (PRKACA (human)): 91.7% | residual activity (SRC (human)): 64.5% | residual activity (MAPK13 (human)): 99.6% | residual activity (CAMK2B (human)): 102% | residual activity (AXL (human)): 104% | residual activity (CSNK1A1 (human)): 95.8% | residual activity (PAK1 (human)): 89.5% | residual activity (FLT3 (human)): 73.1% | residual activity (CDK1 CCNB1 (human)): 89.3% | residual activity (WNK3 (human)): 105% | residual activity (MAP4K5 (human)): 94.9% | residual activity (FRK (human)): 92.2% | residual activity (RPS6KA1 KD1 KD2 (human)): 92.8% | residual activity (KIT (human)): 86.1% | residual activity (RAF1 (human)): 98.7% | residual activity (MAPK11 (human)): 103% | residual activity (PDGFRA (human)): 89.3% | residual activity (TBK1 (human)): 91% | residual activity (ALK (human)): 99.8% | residual activity (CHEK1 (human)): 96.6% | residual activity (GRK4 (human)): 96.9% | residual activity (CSNK2A1 (human)): 94.1% | residual activity (CDK9 CCNT1 (human)): 86.8% | residual activity (CDK6 CCND3 (human)): 98.5% | residual activity (MAPKAPK3 (human)): 93% | residual activity (PRKD2 (human)): 101% | residual activity (PRKD1 (human)): 94.1% | residual activity (FYN (human)): 54.1% | residual activity (STK10 (human)): 90.1% | residual activity (RPS6KA2 KD1 KD2 (human)): 101% | residual activity (CDK5 CDK5R1 p25 (human)): 99% | residual activity (RET (human)): 88.6%
